The values below come from ChEMBL document CHEMBL5523697, “Colony Stimulating Factor-1 Receptor: An emerging target for neuroinflammation PET imaging and AD therapy” (Bioorg Med Chem, 2024).

Data set [1] has as its target T1, Macrophage colony-stimulating factor 1 receptor (Homo sapiens, UniProt P07333).
Data set [2] deals with T1, Macrophage colony-stimulating factor 1 receptor. The source holds these as a separate data set.
Data set [3] is described as follows: physchem. As to conditions: buffer, pH 7.4.
Data set [4] in a line: in vivo. Conditions: mouse, brain.
A short description of data set [5]: in vivo. As to conditions: mouse, brain, iv, 5 mg/kg.
Data set [6] in a line: in vivo. As to conditions: mouse, brain, iv, 5 mg/kg. This is another data set of the same source.
The nature of data set [7]: in vivo. Conditions: mouse, brain, iv, 5 mg/kg. The source holds these as a separate data set.
Data set [8] can be described thus: physchem. Conditions: octanol/water.
In data set [9] the target is T1, Macrophage colony-stimulating factor 1 receptor. The source holds these as a separate data set.

T1 sequence (P07333 whole entry): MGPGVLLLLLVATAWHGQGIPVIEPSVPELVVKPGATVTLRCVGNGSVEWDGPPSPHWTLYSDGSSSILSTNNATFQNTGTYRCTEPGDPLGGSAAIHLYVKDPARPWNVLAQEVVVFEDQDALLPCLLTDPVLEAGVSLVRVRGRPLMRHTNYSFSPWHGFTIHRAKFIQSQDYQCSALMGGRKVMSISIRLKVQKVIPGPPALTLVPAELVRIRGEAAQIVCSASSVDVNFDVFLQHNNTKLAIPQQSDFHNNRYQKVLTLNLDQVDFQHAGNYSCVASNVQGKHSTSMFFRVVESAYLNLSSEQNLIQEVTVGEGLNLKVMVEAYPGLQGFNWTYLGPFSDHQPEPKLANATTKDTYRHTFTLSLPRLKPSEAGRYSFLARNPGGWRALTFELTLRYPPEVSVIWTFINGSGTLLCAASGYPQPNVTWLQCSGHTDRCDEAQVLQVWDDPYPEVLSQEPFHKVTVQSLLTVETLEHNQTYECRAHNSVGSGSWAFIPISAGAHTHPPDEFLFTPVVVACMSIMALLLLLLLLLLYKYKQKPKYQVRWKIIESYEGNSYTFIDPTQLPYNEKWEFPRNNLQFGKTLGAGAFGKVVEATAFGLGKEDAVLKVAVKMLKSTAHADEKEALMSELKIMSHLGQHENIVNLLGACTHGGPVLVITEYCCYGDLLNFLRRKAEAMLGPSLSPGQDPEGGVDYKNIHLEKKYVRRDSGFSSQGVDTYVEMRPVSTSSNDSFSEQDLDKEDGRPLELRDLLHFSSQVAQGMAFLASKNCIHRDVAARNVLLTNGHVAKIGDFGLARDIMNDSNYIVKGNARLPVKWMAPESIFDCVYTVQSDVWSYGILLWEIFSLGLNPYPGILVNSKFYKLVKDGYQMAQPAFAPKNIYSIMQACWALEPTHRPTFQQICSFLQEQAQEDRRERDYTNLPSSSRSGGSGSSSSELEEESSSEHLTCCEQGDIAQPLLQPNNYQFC

What is called Ki is the dissociation constant of the complex between target and ligand, obtained from inhibition or displacement. A low value points to tighter binding. `CCOc1cc2ncc(C(N)=O)c(Nc3ccc(F)cc3F)c2cc1N1CCN(C)CC1` yielded an inhibition constant Ki in [1] of 8 nM.
As usually defined, the Kd is the free concentration of one partner at which half of the binding sites on the other are occupied at equilibrium, for simple one-to-one binding. Higher therefore signals weaker binding. A word on the logD: it is lipophilicity at a set pH, counting ionised and neutral species. The low end stands for lower lipophilicity, the high end for higher lipophilicity. `CNC(=O)c1cc(Oc2ccc3nc(N([11CH3])[C@@H]4CCCC[C@H]4O)sc3c2)ccn1` had a Kd in [2] of 26 nM. In data set [3], this molecule returned a logD of 3.38.
As a reminder, the tissue uptake is the percentage of the injected dose found per gram of tissue. Regarding `[11CH3]NC(=O)c1cc(Oc2ccc3nc(N[C@@H]4CCCC[C@H]4O)sc3c2)ccn1`, the tissue uptake at 1 h was 1.18 %ID/g in [4] and 1.3 %ID/g in [6]. Besides, the tissue uptake at 0.25 h in data set [5] was found to be 1.35 %ID/g. For the same molecule, in data set [7], the tissue uptake at 5 min was 2 %ID/g. In data set [8], this molecule came in with a log distribution coefficient (logD) of 2.26.
By IC50 is commonly meant the concentration that inhibits the measured activity by half. In data set [9], `CCOc1cc2ncc(C(N)=O)c(Nc3ccc(F)cc3F)c2cc1N1CCN([11CH3])CC1` displayed an IC50 of 6 nM.
In [2], `CNC(=O)c1cc(Oc2ccc3nc(N(C)[C@@H]4CCCC[C@H]4O)sc3c2)ccn1` came in with a Kd of 15.7 nM. Besides, the logD in data set [3] came out at 3.67.
